Reference: patent publication US20070128217A1 (priority 2003, published 2007)

How the values were obtained:
[1] = system: control sera (pooled serum of ten healthy LUMC hospital workers; commercial negative donor pooled serum from the Dutch bloodbank); format: binding, human; set-up: Binding of Control serum LUMC to linear peptides / Binding of Control serum Blood-bank to linear peptides / Binding of Control serum LUMC to looped peptides / Binding of Control Serum Blood-Bank to Looped peptides / Binding of Control serum LUMC to linear peptides of the protein M of SARS-CoV Urbani / Binding of Control serum Blood-bank to linear peptides of the protein M of SARS-CoV Urbani / Binding of Control serum LUMC to looped peptides of the protein M of SARS-CoV Urbani / Binding of Control Serum Blood-Bank to Looped peptides of the protein M of SARS-CoV Urbani: unit not given here
[2] = system: antibodies in sera from SARS patients (sera 1a, 1b, 2, 6, 37, 62, London, SARS-yellow, SARS-green); format: binding, human; set-up: Binding of serum 6 to linear peptides of protein X1 of SARS-CoV Urbani / Binding of serum 37 to linear peptides of protein X1 of SARS-CoV Urbani / Binding of serum 6 to looped/cyclic peptide (PEPSCAN-ELISA) / Binding of serum 37 to looped/cyclic peptide (PEPSCAN-ELISA) / Binding of serum 37 to looped/cyclic peptides of protein X1 of SARS-CoV Urbani / Binding of serum 6 to linear peptides of protein X2 / Binding of serum 37 to linear peptides of protein X2 / Binding of serum 37 to looped/cyclic peptides of protein X2 of SARS-CoV Urbani / Binding of serum 6 to linear peptides of protein M of SARS-CoV Urbani / Binding of serum 37 to linear peptides of protein M of SARS-CoV Urbani / Binding of serum 6 to looped/cyclic peptides of protein M of SARS-CoV Urbani / Binding of serum 37 to looped/cyclic peptides of protein M of SARS-CoV Urbani / Binding of serum 6 to linear peptides of protein X3 of SARS-CoV Urbani / Binding of serum 37 to linear peptides of protein X3 of SARS-CoV Urbani / Binding of serum 37 to looped/cyclic peptides of protein X3 of SARS-CoV Urbani / Binding of serum 6 to linear peptides of protein X4 of SARS-CoV Urbani / Binding of serum 37 to linear peptides of protein X4 of SARS-CoV Urbani / Binding of serum 37 to looped/cyclic peptides of protein X4 of SARS-CoV Urbani / Binding of serum 6 to linear peptides of protein X5 of SARS-CoV Urbani / Binding of serum 37 to linear peptides of protein X5 of SARS-CoV Urbani / Binding of serum 37 to looped/cyclic peptides of protein X5 of SARS-CoV Urbani / Binding of serum 6 to linear peptides of protein N of SARS-CoV Urbani / Binding of serum 37 to linear peptides of protein N of SARS-CoV Urbani / Binding of serum 6 to linear peptide (PEPSCAN-ELISA) / Binding of serum 1a to looped/cyclic peptides of protein N of SARS-CoV Urbani / Binding of serum 1b to looped/cyclic peptides of protein N of SARS-CoV Urbani / Binding of serum 2 to looped/cyclic peptides of protein N of SARS-CoV Urbani / Binding of serum 6 to looped/cyclic peptides of protein N of SARS-CoV Urbani / Binding of serum 37 to looped/cyclic peptides of protein N of SARS-CoV Urbani / Binding of serum 62 to looped/cyclic peptides of protein N of SARS-CoV Urbani / Binding of serum London to looped/cyclic peptides of protein N of SARS-CoV Urbani / Binding of serum SARS-green to looped/cyclic peptides of protein N of SARS-CoV Urbani: unit not given here
[3] = system: rabbit serum obtained by immunizing a rabbit with the SARS-CoV strain Frankfurt 1; format: binding; set-up: Binding of a rabbit serum to linear peptides / Binding of a rabbit serum to looped peptides / Rabbit serum linear peptides / Rabbit serum looped peptides / Binding of a rabbit serum to linear peptides of protein N of SARS-CoV Urbani (Rabbit serum linear peptides) / Binding of a rabbit serum to looped/cyclic peptides of protein N of SARS-CoV Urbani (Rabbit serum looped peptides): unit not given here

## ELYSPLFLIVAALVF
[1]
  Binding of Control Serum Blood-Bank to Looped peptides: 0.7
  Binding of Control serum Blood-bank to linear peptides: 0.5
  Binding of Control serum LUMC to linear peptides: 0.3
  Binding of Control serum LUMC to looped peptides: 0.7
[2]
  Binding of serum 1a to linear peptides of protein X4 of SARS-CoV Urbani: 0.7
  Binding of serum 1a to looped/cyclic peptides of protein X4 of SARS-CoV Urbani: 0.6
  Binding of serum 1b to linear peptides of protein X4 of SARS-CoV Urbani: 0.4
  Binding of serum 1b to looped/cyclic peptides of protein X4 of SARS-CoV Urbani: 0.4
  Binding of serum 2 to linear peptides of protein X4 of SARS-CoV Urbani: 0.4
  Binding of serum 2 to looped/cyclic peptides of protein X4 of SARS-CoV Urbani: 0.6
  Binding of serum 6 to linear peptides of protein X4 of SARS-CoV Urbani: 0.4
  Binding of serum 6 to looped/cyclic peptides of protein X4 of SARS-CoV Urbani: 0.4
  Binding of serum 37 to linear peptides of protein X4 of SARS-CoV Urbani: 0.6
  Binding of serum 37 to looped/cyclic peptides of protein X4 of SARS-CoV Urbani: 0.6
  Binding of serum 62 to linear peptides of protein X4 of SARS-CoV Urbani: 0.6
  Binding of serum 62 to looped/cyclic peptides of protein X4 of SARS-CoV Urbani: 0.6
  Binding of serum London to linear peptides of protein X4 of SARS-CoV Urbani: 0.5
  Binding of serum London to looped/cyclic peptides of protein X4 of SARS-CoV Urbani: 0.2
  Binding of serum SARS-green to linear peptides of protein X4 of SARS-CoV Urbani: 0.5
  Binding of serum SARS-green to looped/cyclic peptides of protein X4 of SARS-CoV Urbani: 0.5
  Binding of serum SARS-yellow to linear peptides of protein X4 of SARS-CoV Urbani: 0.2
  Binding of serum SARS-yellow to looped/cyclic peptides of protein X4 of SARS-CoV Urbani: 0.6
[3]
  Rabbit serum linear peptides: 0.4
  Rabbit serum looped peptides: 0.5

## VGTDSGFAAYNRYRI
[1]
  Binding of Control Serum Blood-Bank to Looped peptides of the protein M of SARS-CoV Urbani: 0.5
  Binding of Control serum Blood-bank to linear peptides of the protein M of SARS-CoV Urbani: 0.7
  Binding of Control serum LUMC to linear peptides of the protein M of SARS-CoV Urbani: 0.3
  Binding of Control serum LUMC to looped peptides of the protein M of SARS-CoV Urbani: 0.6
[2]
  Binding of serum 1a to linear peptides of protein M of SARS-CoV Urbani: 0.8
  Binding of serum 1a to looped/cyclic peptides of protein M of SARS-CoV Urbani: 0.7
  Binding of serum 1b to linear peptides of protein M of SARS-CoV Urbani: 0.4
  Binding of serum 1b to looped/cyclic peptides of protein M of SARS-CoV Urbani: 0.4
  Binding of serum 2 to linear peptides of protein M of SARS-CoV Urbani: 0.4
  Binding of serum 2 to looped/cyclic peptides of protein M of SARS-CoV Urbani: 0.7
  Binding of serum 6 to linear peptides of protein M of SARS-CoV Urbani: 0.3
  Binding of serum 6 to looped/cyclic peptides of protein M of SARS-CoV Urbani: 0.6
  Binding of serum 37 to linear peptides of protein M of SARS-CoV Urbani: 0.6
  Binding of serum 37 to looped/cyclic peptides of protein M of SARS-CoV Urbani: 0.7
  Binding of serum 62 to linear peptides of protein M of SARS-CoV Urbani: 0.7
  Binding of serum 62 to looped/cyclic peptides of protein M of SARS-CoV Urbani: 0.8
  Binding of serum London to linear peptides of protein M of SARS-CoV Urbani: 0.3
  Binding of serum London to looped/cyclic peptides of protein M of SARS-CoV Urbani: 0.2
  Binding of serum SARS-green to linear peptides of protein M of SARS-CoV Urbani: 0.3
  Binding of serum SARS-green to looped/cyclic peptides of protein M of SARS-CoV Urbani: 0.4
  Binding of serum SARS-yellow to linear peptides of protein M of SARS-CoV Urbani: 0.1
  Binding of serum SARS-yellow to looped/cyclic peptides of protein M of SARS-CoV Urbani: 0.5
[3]
  Rabbit serum linear peptides: 0.4
  Rabbit serum looped peptides: 0.0

## CTSTHFAFACADGTR
[1]
  Binding of Control Serum Blood-Bank to Looped peptides: 0.8
  Binding of Control serum Blood-bank to linear peptides: 0.7
  Binding of Control serum LUMC to linear peptides: 0.8
  Binding of Control serum LUMC to looped peptides: 0.7
[2]
  Binding of serum 1a to linear peptides of protein X4 of SARS-CoV Urbani: 0.7
  Binding of serum 1a to looped/cyclic peptides of protein X4 of SARS-CoV Urbani: 0.7
  Binding of serum 1b to linear peptides of protein X4 of SARS-CoV Urbani: 0.7
  Binding of serum 1b to looped/cyclic peptides of protein X4 of SARS-CoV Urbani: 0.4
  Binding of serum 2 to linear peptides of protein X4 of SARS-CoV Urbani: 0.5
  Binding of serum 2 to looped/cyclic peptides of protein X4 of SARS-CoV Urbani: 0.6
  Binding of serum 6 to linear peptides of protein X4 of SARS-CoV Urbani: 0.6
  Binding of serum 6 to looped/cyclic peptides of protein X4 of SARS-CoV Urbani: 0.6
  Binding of serum 37 to linear peptides of protein X4 of SARS-CoV Urbani: 0.7
  Binding of serum 37 to looped/cyclic peptides of protein X4 of SARS-CoV Urbani: 0.7
  Binding of serum 62 to linear peptides of protein X4 of SARS-CoV Urbani: 0.8
  Binding of serum 62 to looped/cyclic peptides of protein X4 of SARS-CoV Urbani: 0.7
  Binding of serum London to linear peptides of protein X4 of SARS-CoV Urbani: 0.7
  Binding of serum London to looped/cyclic peptides of protein X4 of SARS-CoV Urbani: 0.3
  Binding of serum SARS-green to linear peptides of protein X4 of SARS-CoV Urbani: 0.6
  Binding of serum SARS-green to looped/cyclic peptides of protein X4 of SARS-CoV Urbani: 0.4
  Binding of serum SARS-yellow to linear peptides of protein X4 of SARS-CoV Urbani: 0.4
  Binding of serum SARS-yellow to looped/cyclic peptides of protein X4 of SARS-CoV Urbani: 1.0
[3]
  Rabbit serum linear peptides: 0.4
  Rabbit serum looped peptides: 0.6

## IQLSLLKVTAFQHQN
[1]
  Binding of Control Serum Blood-Bank to Looped peptides: 0.6
  Binding of Control serum Blood-bank to linear peptides: 0.4
  Binding of Control serum LUMC to linear peptides: 0.7
  Binding of Control serum LUMC to looped peptides: 0.6
[2]
  Binding of serum 1a to linear peptides of protein X2: 0.5
  Binding of serum 1a to looped/cyclic peptides of protein X2 of SARS-CoV Urbani: 0.5
  Binding of serum 1b to linear peptides of protein X2: 0.4
  Binding of serum 1b to looped/cyclic peptides of protein X2 of SARS-CoV Urbani: 0.6
  Binding of serum 2 to linear peptides of protein X2: 0.4
  Binding of serum 2 to looped/cyclic peptides of protein X2 of SARS-CoV Urbani: 0.3
  Binding of serum 6 to linear peptides of protein X2: 0.5
  Binding of serum 6 to looped/cyclic peptides of protein X2 of SARS-CoV Urbani: 0.4
  Binding of serum 37 to linear peptides of protein X2: 0.6
  Binding of serum 37 to looped/cyclic peptides of protein X2 of SARS-CoV Urbani: 0.4
  Binding of serum 62 to linear peptides of protein X2: 0.3
  Binding of serum 62 to looped/cyclic peptides of protein X2 of SARS-CoV Urbani: 0.6
  Binding of serum London to linear peptides of protein X2: 0.3
  Binding of serum London to looped/cyclic peptides of protein X2 of SARS-CoV Urbani: 0.2
  Binding of serum SARS-green to linear peptides of protein X2: 0.2
  Binding of serum SARS-green to looped/cyclic peptides of protein X2 of SARS-CoV Urbani: 0.2
  Binding of serum SARS-yellow to linear peptides of protein X2: 0.3
  Binding of serum SARS-yellow to looped/cyclic peptides of protein X2 of SARS-CoV Urbani: 0.5
[3]
  Binding of a rabbit serum to linear peptides: 0.6
  Binding of a rabbit serum to looped peptides: 0.5

## RRRLLACLCKHKKVS
[1]
  Binding of Control Serum Blood-Bank to Looped peptides: 0.3
  Binding of Control serum Blood-bank to linear peptides: 0.7
  Binding of Control serum LUMC to linear peptides: 0.6
  Binding of Control serum LUMC to looped peptides: 0.2
[2]
  Binding of serum 1a to looped/cyclic peptides of protein X2 of SARS-CoV Urbani: 0.2
  Binding of serum 1b to looped/cyclic peptides of protein X2 of SARS-CoV Urbani: 0.1
  Binding of serum 2 to looped/cyclic peptides of protein X2 of SARS-CoV Urbani: 0.0
  Binding of serum 6 to looped/cyclic peptides of protein X2 of SARS-CoV Urbani: 0.1
  Binding of serum 37 to looped/cyclic peptides of protein X2 of SARS-CoV Urbani: 0.2
  Binding of serum 62 to looped/cyclic peptides of protein X2 of SARS-CoV Urbani: 0.3
  Binding of serum London to looped/cyclic peptides of protein X2 of SARS-CoV Urbani: 0.1
  Binding of serum SARS-green to looped/cyclic peptides of protein X2 of SARS-CoV Urbani: 0.1
  Binding of serum SARS-yellow to looped/cyclic peptides of protein X2 of SARS-CoV Urbani: 0.1
  Recognition of the peptide by sera of SARS-CoV infected individuals, and form (linear, looped/cyclic) in which it is recognized: recognized in linear form
[3]
  Binding of a rabbit serum to linear peptides: 0.5
  Binding of a rabbit serum to looped peptides: 0.2
